Like-named read-outs stand apart in the source and are kept apart here. Non-standard residues stand in square brackets, D forms with d. Residues, ends and D or L forms follow the SMILES beside them. *: point of attachment. Pentanoyl(2S-OH,3S-Me) = CC[C@H](C)[C@H](O)C(=O)*; Tetrahydroisoquinolin(2-yl) = c1ccc2c(c1)CCN(*)C2; dNMeF = CN[C@H](Cc1ccccc1)C(=O)O; NMeQ = CN[C@@H](CCC(N)=O)C(=O)O; Tic = O=C(O)[C@@H]1Cc2ccccc2CN1; X1 = CN(C)[C@H](CCC(N)=O)C(=O)*; dNMeQ = CN[C@H](CCC(N)=O)C(=O)O; NMeA = CN[C@@H](C)C(=O)O; Pentanoyl = CCCCC(=O)*; NHBn = c1ccc(CN*)cc1; Glycolyl = O=C(CO)*; NHPh = c1ccc(N*)cc1; OBn = c1ccc(CO*)cc1
Legend:
[1] = tested on: KB, human nasopharyngeal carcinoma cell line; experiment: cells; assay type: cell-based; settings: growth inhibition after 72 h of drug exposure, SRB staining, A515, means ± standard deviation from three independent experiments, read-out: In vitro inhibitory activity IC50, KB
Method: (§1) All of the prepared analogues (S1–S4, C1–C9, N1–N2, M1–M3) were tested for their in vitro anticancer activities against KB and A549 cell lines. Briefly, cells were seeded into 96-well plates and cultured overnight, treated with tested samples for 72 h. Then, the cells were fixed with 10% trichloroacetic acid (100 µL) and stained with sulforhodamine B (Sigma, St. Louis, MO, USA). The sulforhodamine B (100 µL) in the cells was dissolved in 10 mmol/L Tris-HCl (150 µL) and measured at 515 nm using a multiwell spectrophotometer (VERSAmax, Molecular Devices, Sunnyvale, CA, USA). The inhibition rate on cell proliferation was calculated for each well as (A515control cells − A515treated cells)/A515control cells × 100% (A515: optical density value at 515 nm). The average IC50 values were determined by the Logit method from at least three independent tests.

[2] = tested on: A549, human non-small cell lung tumor cell line; experiment: cells; assay type: cell-based; settings: growth inhibition after 72 h of drug exposure, SRB staining, A515, means ± standard deviation from three independent experiments, read-out: In vitro inhibitory activity IC50, A549
Method: as §1

[3] = tested on: human colon carcinoma (LoVo) cell line; settings: natural product isolated from Symploca sp.; cited from earlier work
Text: (§2) Marine cyanobacteria are a well-known prolific source of novel bioactive compounds [1, 2, 3], most of which are linear or cyclic (depsi)peptides with distinctive structures. […] The first total synthesis of tasiamide was reported by our group in 2008.

[4] = tested on: human nasopharyngeal carcinoma (KB) cell line; settings: natural product isolated from Symploca sp.; cited from earlier work
Text: as §2

Question: Which IC50 [1] does the source give for `CC[C@H](C)[C@H](O)C(=O)N[C@@H](CC(C)C)C(=O)N(C)[C@@H](CCC(N)=O)C(=O)N[C@H](C(=O)NCC(=O)N(C)[C@H](Cc1ccccc1)C(=O)Nc1ccccc1)[C@@H](C)CC` [Compound C1, HO-Hmp-Leu-N-Me-Gln-Ile-Gly-N-Me-D-Phe-NH-Ph] ({Pentanoyl(2S-OH,3S-Me)}-L[NMeQ]IG[dNMeF]-NHPh) here?
Answer: The IC50 was 3.21 ± 0.6 µM.

Question: What about the IC50 [2] of the same molecule?
Answer: Its IC50 is 4.17 ± 0.51 µM.

Question: For `CC[C@H](C)[C@H](O)C(=O)N[C@@H](CC(C)C)C(=O)N(C)[C@H](CCC(N)=O)C(=O)N[C@H](C(=O)NCC(=O)N(C)[C@H](Cc1ccccc1)C(=O)Nc1ccccc1)[C@@H](C)CC` [Compound C2, HO-Hmp-Leu-N-Me-D-Gln-Ile-Gly-N-Me-D-Phe-NH-Ph] ({Pentanoyl(2S-OH,3S-Me)}-L[dNMeQ]IG[dNMeF]-NHPh), which IC50 [1] is on record?
Answer: The IC50 was 8.26 ± 1.22 µM.

Question: And the IC50 [2]?
Answer: Its IC50 is over 50 µM.

Question: With `CC[C@H](C)[C@H](O)C(=O)N[C@@H](CC(C)C)C(=O)N(C)[C@@H](CCC(N)=O)C(=O)N[C@H](C(=O)NCC(=O)N(C)[C@H](Cc1ccccc1)C(=O)NCc1ccccc1)[C@@H](C)CC` [Compound C3, HO-Hmp-Leu-N-Me-Gln-Ile-Gly-N-Me-D-Phe-NH-Bn] ({Pentanoyl(2S-OH,3S-Me)}-L[NMeQ]IG[dNMeF]-NHBn) as the molecule, how does the IC50 [1] read?
Answer: Its IC50 is 2.08 ± 0.33 µM.

Question: And the IC50 [2]?
Answer: Its IC50 is 2.24 ± 0.44 µM.

Question: What does the source list for `CC[C@H](C)[C@H](O)C(=O)N[C@@H](CC(C)C)C(=O)N(C)[C@H](CCC(N)=O)C(=O)N[C@H](C(=O)NCC(=O)N(C)[C@H](Cc1ccccc1)C(=O)NCc1ccccc1)[C@@H](C)CC` [Compound C4, HO-Hmp-Leu-N-Me-D-Gln-Ile-Gly-N-Me-D-Phe-NH-Bn] ({Pentanoyl(2S-OH,3S-Me)}-L[dNMeQ]IG[dNMeF]-NHBn)?
Answer: IC50 [1]: 1.29 ± 0.31 µM; IC50 [2]: 8.48 ± 1.39 µM

Question: With `CC[C@H](C)[C@H](O)C(=O)N[C@@H](CC(C)C)C(=O)N(C)[C@@H](CCC(N)=O)C(=O)N[C@H](C(=O)NCC(=O)N(C)[C@H](Cc1ccccc1)C(=O)N1Cc2ccccc2C[C@H]1C(=O)OC)[C@@H](C)CC` [Compound C5, HO-Hmp-Leu-N-Me-Gln-Ile-Gly-N-Me-D-Phe-NH-MTC] ({Pentanoyl(2S-OH,3S-Me)}-L[NMeQ]IG[dNMeF][Tic]-OMe) as the molecule, how does the IC50 [1] read?
Answer: Its IC50 is 2.45 ± 0.41 µM.

Question: And the IC50 [2]?
Answer: The IC50 was 5.24 ± 1.12 µM.

Question: Which results are given for `CC[C@H](C)[C@H](O)C(=O)N[C@@H](CC(C)C)C(=O)N(C)[C@H](CCC(N)=O)C(=O)N[C@H](C(=O)NCC(=O)N(C)[C@H](Cc1ccccc1)C(=O)N1Cc2ccccc2C[C@H]1C(=O)OC)[C@@H](C)CC` [Compound C6, HO-Hmp-Leu-N-Me-D-Gln-Ile-Gly-N-Me-D-Phe-NH-MTC] ({Pentanoyl(2S-OH,3S-Me)}-L[dNMeQ]IG[dNMeF][Tic]-OMe)?
Answer: IC50 [1]: 8.52 ± 1.41 µM; IC50 [2]: 12.9 ± 1.32 µM

Question: Which IC50 [1] does the source give for `CC[C@H](C)[C@H](O)C(=O)N[C@@H](CC(C)C)C(=O)N(C)[C@@H](CCC(N)=O)C(=O)N[C@H](C(=O)NCC(=O)N(C)[C@H](Cc1ccccc1)C(=O)N1CCc2ccccc2C1)[C@@H](C)CC` [Compound C7, HO-Hmp-Leu-N-Me-Gln-Ile-Gly-N-Me-D-Phe-NH-TIQ] ({Pentanoyl(2S-OH,3S-Me)}-L[NMeQ]IG[dNMeF]-{Tetrahydroisoquinolin(2-yl)}) here?
Answer: Its IC50 is 3.8 ± 0.46 µM.

Question: And the IC50 [2]?
Answer: The IC50 was 3.67 ± 0.66 µM.

Question: For `CC[C@H](C)[C@H](O)C(=O)N[C@@H](CC(C)C)C(=O)N(C)[C@H](CCC(N)=O)C(=O)N[C@H](C(=O)NCC(=O)N(C)[C@H](Cc1ccccc1)C(=O)N1CCc2ccccc2C1)[C@@H](C)CC` [Compound C8, HO-Hmp-Leu-N-Me-D-Gln-Ile-Gly-N-Me-D-Phe-NH-TIQ] ({Pentanoyl(2S-OH,3S-Me)}-L[dNMeQ]IG[dNMeF]-{Tetrahydroisoquinolin(2-yl)}), which IC50 [1] is on record?
Answer: The IC50 was 3.64 ± 0.55 µM.

Question: What about the IC50 [2] of the same molecule?
Answer: The IC50 was over 50 µM.

Question: What does the source list for `CC[C@H](C)[C@H](O)C(=O)N[C@@H](CC(C)C)C(=O)N(C)[C@@H](C)C(=O)N[C@H](C(=O)NCC(=O)N(C)[C@H](Cc1ccccc1)C(=O)NCc1ccccc1)[C@@H](C)CC` [Compound C9, HO-Hmp-Leu-N-Me-Ala-Ile-Gly-N-Me-D-Phe-NH-Bn] ({Pentanoyl(2S-OH,3S-Me)}-L[NMeA]IG[dNMeF]-NHBn)?
Answer: IC50 [1]: > 50 µM; IC50 [2]: > 50 µM

Question: Which results are given for `CC[C@H](C)[C@H](O)C(=O)N[C@@H](CC(C)C)C(=O)N[C@H](CCC(N)=O)C(=O)N[C@H](C(=O)NCC(=O)N(C)[C@H](Cc1ccccc1)C(=O)NCc1ccccc1)[C@@H](C)CC` [Compound M1, HO-Hmp-Leu-D-Gln-Ile-Gly-N-Me-D-Phe-NH-Bn] ({Pentanoyl(2S-OH,3S-Me)}-L[dQ]IG[dNMeF]-NHBn)?
Answer: IC50 [1]: > 50 µM; IC50 [2]: > 50 µM

Question: Which results are given for `CC[C@H](C)[C@H](O)C(=O)N[C@@H](CC(C)C)C(=O)N(C)[C@H](CCC(N)=O)C(=O)N[C@H](C(=O)NCC(=O)N[C@H](Cc1ccccc1)C(=O)NCc1ccccc1)[C@@H](C)CC` [Compound M2, HO-Hmp-Leu-N-Me-D-Gln-Ile-Gly-D-Phe-NH-Bn] ({Pentanoyl(2S-OH,3S-Me)}-L[dNMeQ]IG[dF]-NHBn)?
Answer: IC50 [1]: > 50 µM; IC50 [2]: > 50 µM

Question: What does the source list for `CC[C@H](C)[C@H](O)C(=O)N[C@@H](CC(C)C)C(=O)N[C@H](CCC(N)=O)C(=O)N[C@H](C(=O)NCC(=O)N[C@H](Cc1ccccc1)C(=O)NCc1ccccc1)[C@@H](C)CC` [Compound M3, HO-Hmp-Leu-D-Gln-Ile-Gly-D-Phe-NH-Bn] ({Pentanoyl(2S-OH,3S-Me)}-L[dQ]IG[dF]-NHBn)?
Answer: IC50 [1]: > 50 µM; IC50 [2]: > 50 µM

Question: With `CCCCC(=O)N[C@@H](CC(C)C)C(=O)N(C)[C@H](CCC(N)=O)C(=O)N[C@H](C(=O)NCC(=O)N(C)[C@H](Cc1ccccc1)C(=O)NCc1ccccc1)[C@@H](C)CC` [Compound N1, n-Pentanoyl-Leu-N-Me-D-Gln-Ile-Gly-N-Me-D-Phe-NH-Bn] (Pentanoyl-L[dNMeQ]IG[dNMeF]-NHBn) as the molecule, how does the IC50 [1] read?
Answer: The IC50 was over 50 µM.

Question: What about the IC50 [2] of the same molecule?
Answer: The IC50 was over 50 µM.

Question: Which results are given for `CC[C@H](C)[C@H](NC(=O)[C@@H](CCC(N)=O)N(C)C(=O)[C@H](CC(C)C)NC(=O)CO)C(=O)NCC(=O)N(C)[C@H](Cc1ccccc1)C(=O)NCc1ccccc1` [Compound N2, 2-Hydroxyacetyl-Leu-N-Me-D-Gln-Ile-Gly-N-Me-D-Phe-NH-Bn] (Glycolyl-L[dNMeQ]IG[dNMeF]-NHBn)?
Answer: IC50 [1]: > 50 µM; IC50 [2]: > 50 µM

Question: For `CC[C@H](C)[C@H](NC(=O)[C@@H](CCC(N)=O)N(C)C)C(=O)NCC(=O)N(C)[C@H](Cc1ccccc1)C(=O)N1CCC[C@H]1C(=O)OC` [Compound S1, N,N-Me2-D-Gln-Ile-Gly-N-Me-D-Phe-Pro-OMe] (X1-IG[dNMeF]P-OMe), which IC50 [1] is on record?
Answer: The IC50 was over 50 µM.

Question: And the IC50 [2]?
Answer: The IC50 was over 50 µM.

Question: With `CC[C@H](C)[C@@H](C(=O)NCC(=O)N(C)[C@H](Cc1ccccc1)C(=O)N1CCC[C@H]1C(=O)OC)N(C)C` [Compound S2, N,N-Me2-Ile-Gly-N-Me-D-Phe-Pro-OMe] as the molecule, how does the IC50 [1] read?
Answer: The IC50 was over 50 µM.

Question: And the IC50 [2]?
Answer: The IC50 was over 50 µM.

Question: For `CC[C@H](C)[C@H](O)C(=O)N[C@@H](CC(C)C)C(=O)N(C)[C@H](CCC(N)=O)C(=O)N[C@H](C(=O)OCc1ccccc1)[C@@H](C)CC` [Compound S3, HO-Hmp-Leu-N-Me-D-Gln-Ile-OBn], which IC50 [1] is on record?
Answer: The IC50 was over 50 µM.

Question: What about the IC50 [2] of the same molecule?
Answer: Its IC50 is over 50 µM.

Question: For `CC[C@H](C)[C@H](O)C(=O)N[C@@H](CC(C)C)C(=O)N(C)[C@H](CCC(N)=O)C(=O)N[C@H](C(=O)NCC(=O)OCc1ccccc1)[C@@H](C)CC` [Compound S4, HO-Hmp-Leu-N-Me-D-Gln-Ile-Gly-OBn] ({Pentanoyl(2S-OH,3S-Me)}-L[dNMeQ]IG-OBn), which IC50 [1] is on record?
Answer: The IC50 was over 50 µM.

Question: What about the IC50 [2] of the same molecule?
Answer: The IC50 was over 50 µM.

Question: Which IC50 [1] does the source give for `CC[C@H](C)[C@H](O)C(=O)N[C@@H](CC(C)C)C(=O)N(C)[C@H](CCC(N)=O)C(=O)N[C@H](C(=O)NCC(=O)N(C)[C@H](Cc1ccccc1)C(=O)N1CCC[C@H]1C(=O)OC)[C@@H](C)CC` [Compound T2, tasiamide] ({Pentanoyl(2S-OH,3S-Me)}-L[dNMeQ]IG[dNMeF]P-OMe) here?
Answer: Its IC50 is 0.58 ± 0.07 µM.

Question: And the IC50 [2]?
Answer: Its IC50 is over 50 µM.

Question: What about the “Cytotoxicity IC50, LoVo” value [3] of the same molecule?
Answer: Its value is 3.47 µg/mL.

Question: What about the “Cytotoxicity IC50, KB” value [4] of the same molecule?
Answer: Its value is 0.48 µg/mL.

Question: With `COc1cc([C@@H]2c3cc4c(cc3[C@@H](O[C@@H]3O[C@@H]5CO[C@@H](C)O[C@H]5[C@H](O)[C@H]3O)[C@H]3COC(=O)[C@H]23)OCO4)cc(OC)c1O` [Etoposide, etoposide, reference compound] as the molecule, how does the IC50 ([1]; Homo sapiens) read?
Answer: The IC50 was 0.85 ± 0.08 µM.

Question: What about the IC50 ([2]; Homo sapiens) of the same molecule?
Answer: Its IC50 is 0.99 ± 0.09 µM.

Source: PMC4012464, “Design, Synthesis and Biological Evaluation of Tasiamide Analogues as Tumor Inhibitors” (Marine Drugs, 2014)
